Source: PubChem BioAssay AID248 (DTP/NCI, 2004)
Where “and” joins values, the source holds several entries; their conditions need not be identical. Equal values may be shown once. Toxic doses and inconclusive results are not listed.

System: L1210 leukemia ip in BDF1 mice, survival T/C
Assay: NCI In Vivo Anticancer Drug Screen. Data for tumor model L1210 Leukemia (intraperitoneal) in B6D2F1 (BDF1) mice
Settings: endpoint: mean survival time, higher = longer survival
Procedure, shortened: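 Ratio derived from survival: compound-dosed mice over vehicle-dosed mice, all bearing a transplantable tumor.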

[1] = dose: 100.0 mg/kg/injection, schedule: Q01DX001 (ip), vehicle: other
[2] = dose: 100.0 mg/kg/injection, schedule: Q04DX002 (ip), vehicle: Klucel (hydroxypropylcellulose) (HPC)
[3] = dose: 200.0 mg/kg/injection, schedule: Q01DX001 (ip), vehicle: other
[4] = dose: 200.0 mg/kg/injection, schedule: Q04DX002 (ip), vehicle: Klucel (hydroxypropylcellulose) (HPC)
[5] = dose: 400.0 mg/kg/injection, schedule: Q01DX001 (ip), vehicle: other
[6] = dose: 400.0 mg/kg/injection, schedule: Q04DX002 (ip), vehicle: Klucel (hydroxypropylcellulose) (HPC)
[7] = dose: 100.0 mg/kg/injection, schedule: Q04DX003 (ip), vehicle: saline with Tween-80
[8] = dose: 200.0 mg/kg/injection, schedule: Q04DX003 (ip), vehicle: saline with Tween-80
[9] = dose: 400.0 mg/kg/injection, schedule: Q04DX003 (ip), vehicle: saline with Tween-80
[10] = dose: 100.0 mg/kg/injection, schedule: Q01DX009 (ip), vehicle: Klucel (hydroxypropylcellulose) (HPC)
[11] = dose: 200.0 mg/kg/injection, schedule: Q01DX009 (ip), vehicle: Klucel (hydroxypropylcellulose) (HPC)
[12] = dose: 100.0 mg/kg/injection, schedule: Q01DX009 (ip), vehicle: saline
[13] = dose: 100.0 mg/kg/injection, schedule: Q04DX003 (ip), vehicle: saline
[14] = dose: 200.0 mg/kg/injection, schedule: Q01DX009 (ip), vehicle: saline
[15] = dose: 200.0 mg/kg/injection, schedule: Q04DX003 (ip), vehicle: saline
[16] = dose: 400.0 mg/kg/injection, schedule: Q04DX003 (ip), vehicle: saline
[17] = dose: 100.0 mg/kg/injection, schedule: Q04DX003 (ip), vehicle: Klucel (hydroxypropylcellulose) (HPC)
[18] = dose: 200.0 mg/kg/injection, schedule: Q04DX003 (ip), vehicle: Klucel (hydroxypropylcellulose) (HPC)
[19] = dose: 400.0 mg/kg/injection, schedule: Q04DX003 (ip), vehicle: Klucel (hydroxypropylcellulose) (HPC)
[20] = dose: 100.0 mg/kg/injection, schedule: Q01DX001 (ip), vehicle: saline
[21] = dose: 400.0 mg/kg/injection, schedule: Q01DX009 (ip), vehicle: Klucel (hydroxypropylcellulose) (HPC)
[22] = dose: 200.0 mg/kg/injection, schedule: Q01DX001 (ip), vehicle: saline
[23] = dose: 400.0 mg/kg/injection, schedule: Q01DX001 (ip), vehicle: saline

In the case of `CCCCCCCCCCCC(N)=O`, the T/C [1] is reported as 104 % of control, the T/C [2] is reported as 104 % of control and the T/C [3] is reported as 93 % of control. The T/C [4] was 110 % of control, the T/C [5] was 96 % of control and the T/C [6] was 93 % of control.
For `COC1(OC)CCP(=S)(c2ccccc2)CC1C#N` (configuration not stated), the T/C [7] was 100 % of control, the T/C [8] was 101 % of control and the T/C [9] was 92 % of control.
In the case of `O=C(N/N=C/C(CC(O)C(O)CO)=N/NC(=O)c1ccc(Cl)cc1)c1ccc(Cl)cc1` (configuration not stated), the T/C [10] is reported as 109 % of control and the T/C [11] is reported as 97 % of control.
`O=C(NCC[N+](=O)[O-])c1ccccc1` was tested, and the T/C (dose: 50.0 mg/kg/injection, schedule: Q01DX009 (ip), vehicle: saline) was 97 % of control, the T/C [12] was 93 % of control and the T/C [13] was 92 % of control. The T/C [14] was 95 % of control, the T/C [15] was 96 % of control and the T/C [16] was 100 % of control.
With `COc1ccc2[nH]c3c(C)cc(C=O)c(C)c3c2c1` the T/C [1] was 101 % of control, the T/C [7] was 102 % of control and the T/C [3] was 95 % of control. The T/C [8] was 101 % of control, the T/C [5] was 91 % of control and the T/C [9] was 96 % of control.
For `CC(C)CN1CCC(=O)NC1=O`, the T/C (dose: 100.0 mg/kg/injection, schedule: Q01DX Z (ip), vehicle: saline) was 100 % of control and the T/C (dose: 200.0 mg/kg/injection, schedule: Q01DX Z (ip), vehicle: saline) was 94 % of control.
For `CCNC(=NC)c1ccc(NC(=O)c2ccc(C(=O)Nc3ccc(C(=NC)NCC)cc3)cc2)cc1`, the T/C (dose: 1.3 mg/kg/injection, schedule: Q01DX Z (ip), vehicle: carboxymethylcellulose (CMC)) was 98 % of control, the T/C (dose: 1.9 mg/kg/injection, schedule: Q01DX Z (ip), vehicle: carboxymethylcellulose (CMC)) was 96 % of control and the T/C (dose: 2.9 mg/kg/injection, schedule: Q01DX Z (ip), vehicle: carboxymethylcellulose (CMC)) was 153 % of control. The T/C (dose: 4.4 mg/kg/injection, schedule: Q01DX Z (ip), vehicle: carboxymethylcellulose (CMC)) was 119 % of control, the T/C (dose: 6.6 mg/kg/injection, schedule: Q01DX Z (ip), vehicle: carboxymethylcellulose (CMC)) was 116 % of control and the T/C (dose: 10.0 mg/kg/injection, schedule: Q01DX Z (ip), vehicle: carboxymethylcellulose (CMC)) was 110 % of control. The T/C (dose: 15.0 mg/kg/injection, schedule: Q01DX Z (ip), vehicle: carboxymethylcellulose (CMC)) was 98 % of control.
With `Cc1cc(NCC2CCNCC2)nc(/N=C(\N)Nc2ccc(Cl)c(Cl)c2)n1` the T/C (dose: 12.5 mg/kg/injection, schedule: Q04DX003 (ip), vehicle: saline) was 102 % of control, the T/C (dose: 25.0 mg/kg/injection, schedule: Q04DX003 (ip), vehicle: saline) was 113 % of control and the T/C (dose: 50.0 mg/kg/injection, schedule: Q04DX003 (ip), vehicle: saline) was 102 % of control. The T/C [13] was 106 % of control.
`O=[N+]([O-])c1cc(Cl)cc2c1nc(NCCCO)c1ccccc12` was tested, and the T/C [17] was 105 % of control, the T/C [18] was 108 % of control and the T/C [19] was 102 % of control.
With `CNC1(Cc2ccc(F)cc2)CCC1` the T/C [12] was 100 % of control.
In the case of `O=S(=O)(O)C(I)I`, the T/C (dose: 6.25 mg/kg/injection, schedule: Q01DX001 (ip), vehicle: saline) is reported as 103 % of control, the T/C (dose: 12.5 mg/kg/injection, schedule: Q01DX001 (ip), vehicle: saline) is reported as 100 % of control and the T/C (dose: 25.0 mg/kg/injection, schedule: Q01DX001 (ip), vehicle: saline) is reported as 98 % of control and 100 % of control. The T/C [20] was 103 % of control.
For `CCN(CC)CCNc1ccccc1[N+](=O)[O-]`, the T/C (dose: 75.0 mg/kg/injection, schedule: Q01DX001 (ip), vehicle: acid diluted with saline) was 100 % of control, the T/C (dose: 75.0 mg/kg/injection, schedule: Q04DX003 (ip), vehicle: acid diluted with saline) was 103 % of control and the T/C (dose: 150.0 mg/kg/injection, schedule: Q01DX001 (ip), vehicle: acid diluted with saline) was 102 % of control. The T/C (dose: 150.0 mg/kg/injection, schedule: Q04DX003 (ip), vehicle: acid diluted with saline) was 95 % of control and the T/C (dose: 300.0 mg/kg/injection, schedule: Q01DX001 (ip), vehicle: acid diluted with saline) was 110 % of control.
In the case of `CCOC(=O)C1CC(O)CN1` (configuration not stated), the T/C (dose: 100.0 mg/kg/injection, schedule: Q04DX003 (ip), vehicle: saline sonified) is reported as 97 % of control, the T/C (dose: 200.0 mg/kg/injection, schedule: Q04DX003 (ip), vehicle: saline sonified) is reported as 100 % of control and the T/C (dose: 400.0 mg/kg/injection, schedule: Q04DX003 (ip), vehicle: saline sonified) is reported as 87 % of control.
`CCCCCCCCCCCCSC(=O)Nc1ccc([N+](=O)[O-])cc1Cl` was tested, and the T/C [11] was 107 % of control and the T/C [21] was 102 % of control.
For `C[Si](C)(C)OSc1ccccc1[N+](=O)[O-]`, the T/C (dose: 12.5 mg/kg/injection, schedule: Q01DX009 (ip), vehicle: Klucel (hydroxypropylcellulose) (HPC)) was 93 % of control, the T/C (dose: 25.0 mg/kg/injection, schedule: Q01DX009 (ip), vehicle: Klucel (hydroxypropylcellulose) (HPC)) was 92 % of control and the T/C (dose: 50.0 mg/kg/injection, schedule: Q01DX009 (ip), vehicle: Klucel (hydroxypropylcellulose) (HPC)) was 93 % of control. The T/C [10] was 104 % of control, the T/C [11] was 95 % of control and the T/C [21] was 97 % of control.
`Nc1cc(Cl)c2ncn(C3OC(CO)C(O)C3O)c2n1` (configuration not stated) was tested, and the T/C [20] was 98 % of control, the T/C (dose: 100.0 mg/kg/injection, schedule: Q01DX005 (ip), vehicle: saline) was 110 % of control and the T/C [22] was 101 % of control. The T/C (dose: 200.0 mg/kg/injection, schedule: Q01DX005 (ip), vehicle: saline) was 115 % of control and the T/C [23] was 114 % of control.
`CNC(=O)O/N=C\C=N\OC(=O)NC` was tested, and the T/C [20] was 93 % of control, the T/C [22] was 98 % of control and the T/C [23] was 95 % of control.
`CC1(C)N=C(N)N=C(N)N1c1ccc(OCCCc2ccccc2)c([N+](=O)[O-])c1` was tested, and the T/C [10] was 103 % of control and the T/C [11] was 103 % of control.
For `O=C(O)c1ccc(NCc2cccc([N+](=O)[O-])c2)cc1`, the T/C (dose: 100.0 mg/kg/injection, schedule: Q01DX001 (ip), vehicle: Klucel (hydroxypropylcellulose) (HPC)) was 100 % of control, the T/C [10] was 96 % of control and the T/C [2] was 100 % of control and 105 % of control. The T/C [17] was 99 % of control, the T/C (dose: 200.0 mg/kg/injection, schedule: Q01DX001 (ip), vehicle: Klucel (hydroxypropylcellulose) (HPC)) was 104 % of control and the T/C [11] was 106 % of control and 86 % of control. The T/C [4] was 101 % of control and 102 % of control, the T/C [18] was 108 % of control and the T/C (dose: 400.0 mg/kg/injection, schedule: Q01DX001 (ip), vehicle: Klucel (hydroxypropylcellulose) (HPC)) was 100 % of control. The T/C [21] was 96 % of control and 98 % of control, the T/C [6] was 99 % of control and 103 % of control and the T/C [19] was 98 % of control.
`CCOCCc1ccccn1` was tested, and the T/C [12] was 113 % of control, the T/C [13] was 103 % of control and the T/C [14] was 100 % of control. For the same compound, the T/C [15] was 103 % of control, the T/C (dose: 400.0 mg/kg/injection, schedule: Q01DX009 (ip), vehicle: saline) was 96 % of control and the T/C [16] was 101 % of control.
For `CC(C)=CCN(CC=C(C)C)CCC(C#N)(CCN(CC=C(C)C)CC=C(C)C)c1cccc2ccccc12`, the T/C [10] was 86 % of control.
In the case of `O=S1(=O)OCc2ccccc21`, the T/C (dose: 50.0 mg/kg/injection, schedule: Q01DX009 (ip), vehicle: acetone) is reported as 106 % of control, the T/C (dose: 100.0 mg/kg/injection, schedule: Q01DX001 (ip), vehicle: carboxymethylcellulose (CMC)) is reported as 100 % of control and the T/C (dose: 100.0 mg/kg/injection, schedule: Q01DX009 (ip), vehicle: acetone) is reported as 97 % of control. For the same compound, the T/C [13] was 100 % of control, the T/C (dose: 200.0 mg/kg/injection, schedule: Q01DX001 (ip), vehicle: carboxymethylcellulose (CMC)) was 100 % of control and the T/C [15] was 94 % of control.
In the case of `O=c1[nH]cc(CCC(F)(F)F)c(=O)[nH]1`, the T/C (dose: 100.0 mg/kg/injection, schedule: Q04DX002 (ip), vehicle: sodium bicarbonate) is reported as 102 % of control and the T/C (dose: 200.0 mg/kg/injection, schedule: Q04DX002 (ip), vehicle: sodium bicarbonate) is reported as 102 % of control.
